Key:
[1] = in vivo; settings: iv, 4.37 mg/kg
[2] = physchem; settings: aqueous medium

AUC(0-inf) [1]: 21600 ng·h/mL
AUC(0-t) [1]: 20900 ng·h/mL
Cmax [1]: 4390 ng/mL
half-life [1]: 5.07 h
solubility [2]: < 1 µg/mL
SMILES: COc1cc(C(=O)O)ccc1NC(=O)[C@@H]1N[C@@H](CC(C)(C)C)[C@](C#N)(c2ccc(Cl)cc2F)[C@H]1c1cccc(Cl)c1F [Compound B, 4-((2R,3S,4R,5S)-3-(3-chloro-2-fluorophenyl)-4-(4-chloro-2-fluorophenyl)-4-cyano-5-neopentylpyrrolidine-2-carboxamido)-3-methoxybenzoic acid]

Reference: US8993614B2, “Substituted pyrrolidine-2-carboxamides” (Hoffmann-La Roche Inc., priority 2012, dated 2015)
